Results as given in patent US20040220403A1, “1-(2-Methoxybenzyl)-3-benzhydrylpiperazines as tachykinin anatgonists” (priority 2001, published 2004).

Assays:
Emesis in the Dog = Emesis in the Dog (apomorphine-induced retching and vomiting); type: in vivo; conditions: adult female dogs; test compound i.v. at the dose of 1.0 mg/kg; 5 min later subcutaneous apomorphine (0.1 mg/0.5 ml/kg); observed for the next 60 min
Experimental: Individually housed adult female dogs (8 to 15 kg) were given an i.v. injection of a solution containing a test compound. 5 Min later the emetic responses (retching and vomiting) were induced by administration of subcutaneous apomorphine (0.1 mg/0.5 ml/kg) and observed for the next 60 min. The timing and number of retches and vomits observed were recorded for each animal. An individual animal was tested with at least 10 days between experiments.

Row | SMILES | melting point | inhibition rate of emesis in the dog (Emesis in the Dog)
1 | COc1ccc(-n2nnnc2C(F)(F)F)cc1CN1C[C@@H]2CN(C(=O)COC(C)=O)CCN2[C@H](C(c2ccccc2)c2ccccc2)C1.Cl.Cl | 138 to 153 °C | –
2 | COc1ccc(-n2nnnc2C(F)(F)F)cc1CN1C[C@@H]2CN(C(=O)C(C)(C)OC(C)=O)CCN2[C@H](C(c2ccccc2)c2ccccc2)C1.Cl.Cl | 143 to 148 °C | –
3 | COc1ccc(-n2nnnc2C(F)(F)F)cc1CN1C[C@@H]2CN(C(=O)C3CCCCC3)CCN2[C@H](C(c2ccccc2)c2ccccc2)C1.Cl.Cl | 169 to 174.5 °C | –
4 | COc1ccc(-n2nnnc2CC(F)(F)F)cc1CN1C[C@@H]2CN(C(=O)c3cccnc3)CCN2[C@H](C(c2ccccc2)c2ccccc2)C1.Cl.Cl.Cl | 197 to 200 °C | –
5 | COc1ccc(-n2nnnc2C(F)(F)F)cc1CN1C[C@@H]2CN(C(=O)CO)CCN2[C@H](C(c2ccccc2)c2ccccc2)C1.Cl.Cl | 140 to 159 °C | –
6 | COc1ccc(-n2nnnc2C(F)(F)F)cc1CN1C[C@@H]2CN(C(=O)CCO)CCN2[C@H](C(c2ccccc2)c2ccccc2)C1.Cl.Cl | 147 to 154 °C | –
7 | COc1ccc(-n2nnnc2C(F)(F)F)cc1CN1C[C@@H]2CN(C(=O)[C@H](C)O)CCN2[C@H](C(c2ccccc2)c2ccccc2)C1.Cl.Cl | 150 to 158 °C | –
8 | COc1ccc(-n2nnnc2C(F)(F)F)cc1CN1C[C@@H]2CN(C(=O)C3CCCC3)CCN2[C@H](C(c2ccccc2)c2ccccc2)C1.Cl.Cl | 170 to 178 °C (dec.) | –
9 | COCCC(=O)N1CCN2[C@H](CN(Cc3cc(-n4nnnc4C(F)(F)F)ccc3OC)C[C@H]2C(c2ccccc2)c2ccccc2)C1.Cl.Cl | 132 to 135 °C | –
10 | COc1ccc(-n2nnnc2C(F)(F)F)cc1CN1C[C@@H]2CN(C(=O)CC(F)(F)F)CCN2[C@H](C(c2ccccc2)c2ccccc2)C1.Cl.Cl | 155 to 160 °C | –
11 | COc1ccc(-n2nnnc2C(F)(F)F)cc1CN1C[C@@H]2CN(C(=O)N(C)C)CCN2[C@H](C(c2ccccc2)c2ccccc2)C1.Cl.Cl | 158 to 164 °C | –
12 | CNC(=O)N1CCN2[C@H](CN(Cc3cc(-n4nnnc4C(F)(F)F)ccc3OC)C[C@H]2C(c2ccccc2)c2ccccc2)C1.Cl.Cl | 160 to 170 °C | –
13 | COc1ccc(-n2nnnc2C(F)(F)F)cc1CN1C[C@@H]2CN(C(N)=O)CCN2[C@H](C(c2ccccc2)c2ccccc2)C1.Cl.Cl | 165 to 190 °C | –
14 | COc1ccc(-n2nnnc2C(F)(F)F)cc1CN1C[C@@H]2CN(C3CCC3)CCN2[C@H](C(c2ccccc2)c2ccccc2)C1.Cl.Cl.Cl | 184 to 187 °C | –
15 | COc1ccc(-n2nnnc2C(F)(F)F)cc1CN1C[C@@H]2CN(c3cccnc3)CCN2[C@H](C(c2ccccc2)c2ccccc2)C1.Cl.Cl.Cl | 175 to 178 °C | –
16 | COc1ccc(-n2nnnc2C(F)(F)F)cc1CN1C[C@@H]2CN(S(N)(=O)=O)CCN2[C@H](C(c2ccccc2)c2ccccc2)C1.Cl.Cl | 174 to 176 °C | –
17 | COc1ccc(-n2nnnc2C(F)(F)F)cc1CN1C[C@@H]2CN(CC(C)=O)CCN2[C@H](C(c2ccccc2)c2ccccc2)C1.Cl.Cl.Cl | 175 to 179 °C | –
18 | COc1ccc(-n2nnnc2C(F)(F)F)cc1CN1C[C@@H]2CN(C(C=O)C(=O)N(C)C)CCN2[C@H](C(c2ccccc2)c2ccccc2)C1.Cl.Cl (stereo partly shown) | 155 to 168 °C | –
19 | COc1ccc(-n2nnnc2C(F)(F)F)cc1CN1C[C@@H]2CN(S(=O)(=O)N(C)C)CCN2[C@H](C(c2ccccc2)c2ccccc2)C1.Cl.Cl | 148 to 152 °C | –
20 | COc1ccc(-n2nnnc2C(F)(F)F)cc1CN1C[C@@H]2CN(S(=O)(=O)CS(C)(=O)=O)CCN2[C@H](C(c2ccccc2)c2ccccc2)C1.Cl.Cl | 162 to 168 °C | –
21 | COc1ccc(-n2nnnc2C(F)(F)F)c(OC)c1CN1C[C@@H]2CN(C(=O)CO)CCN2[C@H](C(c2ccccc2)c2ccccc2)C1.Cl.Cl | 128 to 132 °C | –
22 | COc1ccc(-n2nnnc2C(F)(F)F)cc1CN1C[C@@H]2CC(NC(=O)CO)CN2[C@H](C(c2ccccc2)c2ccccc2)C1.Cl.Cl (stereo partly shown) | 155 to 159 °C | –
23 | COc1ccc(-n2nnnc2C(F)(F)F)c(OC)c1CN1C[C@@H]2CN(C(=O)N(C)C)CCN2[C@H](C(c2ccccc2)c2ccccc2)C1.Cl.Cl [52-(5), (6R,9aR)-6-Benzhydryl-8-[2,6-dimethoxy-3-[5-(trifluoromethyl)-1H-tetrazol-1-yl]benzyl]-N,N-dimethyloctahydro-2H-pyrazino[1,2-a]pyrazine-2-carboxamide dihydrochloride] | – | 100%
24 | COc1ccc(-n2nnnc2C(F)(F)F)c(OC)c1CN1C[C@@H]2C[C@@H](NC(C)=O)CN2[C@H](C(c2ccccc2)c2ccccc2)C1.Cl.Cl [52-(14), N-[(4R, 7R, 8aS)-4-Benzhydryl-2-[2,6-dimethoxy-3-[5-(trifluoromethyl)-1H-tetrazol-1-yl]benzyl]octahydropyrrolo-[1,2-a]pyrazin-7-yl]acetamide dihydrochloride] | – | 100%
25 | COc1ccc(-n2nnnc2C(F)(F)F)c(OC)c1CN1CCN(Cc2cnn(C)c2)[C@H](C(c2ccccc2)c2ccccc2)C1.Cl.Cl [57-(1), (2R)-2-Benzhydryl-4-[2,6-dimethoxy-3-[5-(trifluoromethyl)-1H-tetrazol-1-yl]benzyl]-1-[(1-methyl-1H-pyrazol-4-yl)methyl]piperazine dihydrochloride] | – | 100%
